Results published in patent US10632137B2, “Composition containing ivermectin for exterminating Clavinema mariae infection on Sebastes schlegeli” (REPUBLIC OF KOREA (National Institute of Fisheries Science), priority 2017, dated 2020).
“Also recorded” adds a separate entry of the source.

Key:
[1] = humans, after oral administration; cited from earlier work
[2] = system: Clavinema mariae; assay: organism not typed; conditions: for Antiparasitic effect of Clavinema mariae in vitro compared with the recommended concentration: in vitro killing concentration versus recommended concentration of Table 3; for Killing Concentration (ppm): in vitro, Clavinema mariae in PBS, 1 hour; for Viability of Clavinema mariae (Dead %/Survived): after 1 hour
From the text: Candidate materials of a medicine for exterminating Clavinema mariae infection on Sebastes schlegeli were screened by examining various documents (Table 1). […] From the Sebastes schlegeli naturally infected with Clavinema mariae, the Clavinema mariae was carefully removed with tweezers, preserved in PBS, and directly exposed to nine candidate materials at various concentrations to evaluate the antiparasitic effect. […] However, after being killed, the movement disappears, and thus whether it is dead or not is able to be easily determined by observing whether it moves or not. Among the nine candidate materials, Febendazole, Pyrantel, Levamisole, Piperazine, Ivermectin, Trichlorfon, and Praziqantel were purchased from Sigma Aldrich (USA), and hydrogen peroxide and formalin solution were purchased from Junsei (Japan). Among the candidate materials, a poorly soluble compound, Febendazole, was dissolved in 100% ethanol and diluted with PBS to be used. Piperazine and Ivermectin were dissolved in dimethylsulfoxide (DMSO) and diluted with PBS to be used.
Clavinema mariae was extracted from Sebastes schlegeli (average weight: 150 g) cultivated on the west coast of Cheonsu Bay area (FIG. 1), 2 ml of each candidate material diluted with PBS to have each concentration was dispensed into a 6-well plate. Ten (10) living Clavinema mariae were placed in each well, and viability thereof was confirmed after 1 hour (FIG. 2).

[3] = system: Clavinema mariae; assay: In vivo killing (antiparasitic) effect in Sebastes schlegeli naturally infected with Clavinema mariae
Procedure: 500 Sebastes schlegeli (116±17 g, 20±9 cm) on the west coast region of Korea were purchased and were allowed to habituate at a water temperature of 18.5 to 21° C. in a sea water tank for one week. Since the Sebastes schlegeli infected with Clavinema mariae is able to be confirmed by visual inspection, the Sebastes schlegeli was anesthetized with MS-222, and only the Sebastes schlegeli infected with Clavinema mariae was screened by visual inspection and used for clinical examination.

[4] = system: Sebastes schlegeli; assay: Mortality (death of fish) of treated Sebastes schlegeli
From the text: For the oral administration, a predetermined amount of each candidate material was mixed with blended powder feed to prepare a feed pellet, the Sebastes schlegeli was anesthetized, and the feed pellet was inserted up to the stomach with tweezers (FIG. 2). […] After 2 weeks, all experimental fishes were anesthetized with MS-222, and Clavinema mariae was extracted with tweezers to confirm the death. The control group was anesthetized, and then only feed pill to which the drug is not added was orally administered thereto.
For this purpose, 10 Sebastes schlegeli infected with Clavinema mariae were divided for each experimental group, and when two weeks passed after the Ivermectin was administered a total of 1 to 4 times daily or every 2 to 4 days while changing an oral administration concentration from 1 to 18 ppm, the antiparasitic effect and the mortality of the Clavinema mariae were observed.

[5] = system: Sebastes schlegeli; assay: Histological analysis (H&E) of internal organs after Ivermectin oral administration; format: in vivo; conditions: for hepatocyte (liver histology): oral, 4 times, one week after last administration
Procedure: Ivermectin was orally administered to Sebastes schlegeli according to dosing concentrations, dosing times, and dosing intervals described in Table 6, and after one week from the last oral administration, histological analysis of internal organs was performed. The histological analysis was performed by fixing the liver, kidney, spleen and gill of the experimental fish with 10% neutral formalin, followed by dehydration and paraffin embedding, and the cut tissues were stained with hematoxylin-eosin (H & E) and examined. As a result of histopathological examination, the spleen, kidney, and gill except the liver were normal in all tissues as compared with the control group. […] Therefore, it was confirmed that administration of 1 ppm of Ivermectin 4 times daily or every 2 to 3 days or administration of 2 ppm of Ivermectin every 2 to 3 days was the most preferable administration method in view of stability.

[6] = 1 h, read-out: Viability of Clavinema mariae (Dead %/Survived)
[7] = oral, 5 ppm, 1 administration, after 2 weeks
[8] = medicated bath, 50 ppm, 10 minutes, 1 bath, observed for 2 weeks
[9] = at the concentrations shown in Table 4, once, after 2 weeks
[10] = medicated bath, 50 ppm, 10 minutes, 1 bath, after 2 weeks

With `CC[C@H](C)[C@H]1O[C@]2(C=C[C@@H]1C)C[C@@H]1C[C@@H](C/C=C(\C)[C@@H](O[C@H]3C[C@H](OC)[C@@H](O[C@H]4C[C@H](OC)[C@@H](O)[C@H](C)O4)[C@H](C)O3)[C@@H](C)/C=C/C=C3\CO[C@@H]4[C@H](O)C(C)=C[C@@H](C(=O)O1)[C@]34O)O2` [avermectin] as the molecule, how does the “Time to maximum plasma concentration” value [1] read?
Its value is 4 h.

What about the half-life [1] of the same molecule?
The half-life was “about 16 hours”.

For `c1ccc([C@H]2CN3CCSC3=N2)cc1` [Levamisole], which mortality at 0.5 ppm [2, 6] is on record?
The mortality at 0.5 ppm was 20%.

And the mortality at 1 ppm [2, 6]?
The mortality at 1 ppm was 100%.

What about the mortality at 1.7 ppm [2, 6] of the same molecule?
Its mortality at 1.7 ppm is 100%.

What about the “Antiparasitic effect of Clavinema mariae in vitro compared with the recommended concentration” value [2] of the same molecule?
The value was “at a lower concentration than the recommended concentration”.

What about the “Killing Effect (%)” value ([3]; oral, 2.5 ppm, 1 administration, after 2 weeks) of the same molecule?
Its value is 0%.

What about the “Killing Effect (%)” value [3, 7] of the same molecule?
Its value is 0%.

Which mortality at 800 ppm [2, 6] does the source give for `O=C(C1CCCCC1)N1CC(=O)N2CCc3ccccc3C2C1` (stereo not shown) [Praziquantel] here?
The mortality at 800 ppm was 100%.

What about the mortality at 1600 ppm [2, 6] of the same molecule?
The mortality at 1600 ppm was 100%.

What about the “Antiparasitic effect of Clavinema mariae in vitro compared with the recommended concentration” value [2] of the same molecule?
The value was “did not show the antiparasitic effect of Clavinema mariae at a concentration 2000 times higher than the recommended concentration”.

And the “Killing Concentration (ppm)” value [2]?
The value was 400-800 ppm.

Which mortality at 5 ppm [2, 6] does the source give for `OO` [Hydrogen peroxide] here?
The mortality at 5 ppm was 100%.

What about the mortality at 10 ppm [2, 6] of the same molecule?
The mortality at 10 ppm was 100%.

What about the mortality at 14 ppm [2, 6] of the same molecule?
Its mortality at 14 ppm is 100%.

And the mortality at 280 ppm [2, 6]?
The mortality at 280 ppm was 100%.

And the “Antiparasitic effect of Clavinema mariae in vitro compared with the recommended concentration” value [2]?
Its value is “at a lower concentration than the recommended concentration”.

What about the “Killing Concentration (ppm)” value [2] of the same molecule?
The value was under 5 ppm.

And the “Death of fish (%)” value ([4]; medicated bath, 10 ppm, 10 minutes, 1 bath, observed for 2 weeks)?
Its value is 0%.

And the “Death of fish (%)” value [4, 8]?
Its value is 0%.

What about the “Antiparasitic effect against Clavinema mariae on Sebastes schlegeli” value [3, 9] of the same molecule?
The value was “could not be confirmed to have the antiparasitic effect”.

And the “Killing Effect (%)” value ([3]; medicated bath, 10 ppm, 10 minutes, 1 bath, after 2 weeks)?
The value was 0%.

And the “Killing Effect (%)” value [3, 10]?
Its value is 0%.

Which “Viability of Clavinema mariae (Dead %/Survived)” value (from here on “Viability … (Dead %/Survived)”) ([2]; 2.5 ppm in PBS) does the source give for `COP(=O)(OC)C(O)C(Cl)(Cl)Cl` (stereo not shown) [Trichlorfon] here?
The value was “Survived”.

What about the “Viability … (Dead %/Survived)” value ([2]; 25 ppm in PBS) of the same molecule?
The value was “Survived”.

What about the mortality at 50 ppm [2, 6] of the same molecule?
Its mortality at 50 ppm is 100%.

What about the mortality at 75 ppm [2, 6] of the same molecule?
The mortality at 75 ppm was 100%.

And the “Antiparasitic effect of Clavinema mariae in vitro compared with the recommended concentration” value [2]?
The value was “showed the antiparasitic effect at a very high concentration”.

What about the “Killing Concentration (ppm)” value [2] of the same molecule?
The value was 25-50 ppm.

Which results are given for `C=O` [Formaline, Formalin]?
mortality at 25 ppm [2, 6]: 100%; mortality at 50 ppm [2, 6]: 100%; mortality at 70 ppm [2, 6]: 100%; mortality at 350 ppm [2, 6]: 100%; Antiparasitic effect of Clavinema mariae in vitro compared with the recommended concentration [2]: at a lower concentration than the recommended concentration; Killing Concentration (ppm) [2]: 25 ppm; Death of fish (%) [4, 8]: 0%; Death of fish (%) ([4]; medicated bath, 200 ppm, 10 minutes, 1 bath, observed for 2 weeks): 0%; Antiparasitic effect against Clavinema mariae on Sebastes schlegeli [3, 9]: could not be confirmed to have the antiparasitic effect; Killing Effect (%) [3, 10]: 0%; Killing Effect (%) ([3]; medicated bath, 200 ppm, 10 minutes, 1 bath, after 2 weeks): 0%

What does the source list for Ivermectin?
Viability of Clavinema mariae (Dead %/Survived) ([2]; 0.001 ppm in PBS): Survived; Viability of Clavinema mariae (Dead %/Survived) ([2]; 0.01 ppm in PBS): Dead (100%); Viability of Clavinema mariae (Dead %/Survived) ([2]; 0.05 ppm in PBS): Dead (100%); Viability of Clavinema mariae (Dead %/Survived) ([2]; 0.5 ppm in PBS): Dead (100%); Antiparasitic effect of Clavinema mariae in vitro compared with the recommended concentration [2]: at a lower concentration than the recommended concentration; Killing Concentration (ppm) [2]: 0.001-0.01 ppm; Death of fish (%) ([4]; oral, 1 ppm, 1 administration, observed for 2 weeks): 0%; Death of fish (%) ([4]; oral, 1 ppm, 4 times, everyday): 0%; Death of fish (%) ([4]; oral, 1 ppm, 4 times, intervals 2-3 days): 0%; Behaviour and death of Sebastes schlegeli ([4]; oral, 2 ppm, 4 times): some Sebastes schlegeli were sitting on the bottom and died; Death of fish (%) ([4]; oral, 2 ppm, 4 times, everyday): 20%; Death of fish (%) ([4]; oral, 2 ppm, 4 times, intervals 2-3 days): 0%; Death of Sebastes schlegeli ([4]; oral, 3 ppm or more): death occurred after being administered 2 times; Death of fish (%) ([4]; oral, 3 ppm, 2 times, everyday): 60%; Death of fish (%) ([4]; oral, 3 ppm, 2 times, interval 3 days): 20%; Death of fish (%) ([4]; oral, 4 ppm, 2 times, everyday): 60%; Death of fish (%) ([4]; oral, 5 ppm, 2 times, everyday): 30%; Death of fish (%) ([4]; oral, 6 ppm, 2 times, interval 4 days): 70%; Death of fish (%) ([4]; oral, 18 ppm, 1 time): 100%; Time until the spot where the pus is formed disappeared and was completely cured ([3]; oral, 1 ppm once): ≤ 6 weeks; Antiparasitic effect against Clavinema mariae on Sebastes schlegeli ([3]; oral, 1 ppm once, after two weeks): some individuals had pus in a spot infected with the Clavinema mariae, and showed the antiparasitic effect; Killing Effect (%) ([3]; oral, 1 ppm, 1 administration, after 2 weeks): 20%; Killing Effect (%) ([3]; oral, 1 ppm, 4 times, everyday, after two weeks): 100%; Killing Effect (%) ([3]; oral, 1 ppm, 4 times, intervals 2-3 days, after two weeks): 100%; Nematode antiparasitic effect ([3]; oral, 1 to 2 ppm, 4 times): 100%; State of the infection area after 6 weeks ([3]; oral, 1 to 2 ppm, 4 times, after 6 weeks): the infection area was cleanly treated; Killing Effect (%) ([3]; oral, 2 ppm, 4 times, everyday, after two weeks): 100%; Killing Effect (%) ([3]; oral, 2 ppm, 4 times, intervals 2-3 days, after two weeks): 100%; Killing Effect (%) ([3]; oral, 3 ppm, 2 times, everyday, after two weeks): 100%; Killing Effect (%) ([3]; oral, 3 ppm, 2 times, interval 3 days, after two weeks): 100%; Killing Effect (%) ([3]; oral, 4 ppm, 2 times, everyday, after two weeks): 100%; Killing Effect (%) ([3]; oral, 5 ppm, 2 times, everyday, after two weeks): 100%; Killing Effect (%) ([3]; oral, 6 ppm, 2 times, interval 4 days, after two weeks): 100%; Histopathological examination of spleen, kidney and gill ([5]; all regimens of Table 6, compared with the control group): normal; hepatocyte (liver histology) ([5]; 1 ppm, 2-3 days): Abnormality of the liver tissue was not confirmed; also recorded: Normal; hepatocyte (liver histology) ([5]; 1 ppm, everyday): Abnormality of the liver tissue was not confirmed; also recorded: Normal; hepatocyte (liver histology) ([5]; 2 ppm, 2-3 days): Abnormality of the liver tissue was not confirmed; also recorded: Normal; hepatocyte (liver histology) ([5]; 2 ppm, everyday): hepatocyte metamorphosis, vacuolar formation

For `COC(=O)Nc1nc2ccc(Sc3ccccc3)cc2[nH]1` [Fenbendazole], which “Viability … (Dead %/Survived)” value ([2]; 1.7 ppm in PBS) is on record?
The value was “Survived”.

And the “Viability … (Dead %/Survived)” value ([2]; 5 ppm in PBS)?
The value was “Survived”.

And the mortality at 15 ppm [2, 6]?
Its mortality at 15 ppm is 100%.

And the mortality at 30 ppm [2, 6]?
Its mortality at 30 ppm is 100%.

What about the “Killing Concentration (ppm)” value [2] of the same molecule?
The value was 5-15 ppm.

And the “Death of fish (%)” value ([4]; oral, 5 ppm, 1 administration, observed for 2 weeks)?
Its value is 0%.

And the “Death of fish (%)” value ([4]; oral, 15 ppm, 1 administration, observed for 2 weeks)?
The value was 0%.

And the “Killing Effect (%)” value [3, 7]?
Its value is 0%.

What about the “Killing Effect (%)” value ([3]; oral, 15 ppm, 1 administration, after 2 weeks) of the same molecule?
Its value is 0%.

For `CN1CCCN=C1/C=C/c1cccs1` [Pyrantel], which mortality at 0.06 ppm [2, 6] is on record?
Its mortality at 0.06 ppm is 20%.

And the mortality at 0.09 ppm [2, 6]?
The mortality at 0.09 ppm was 100%.

What about the mortality at 0.9 ppm [2, 6] of the same molecule?
Its mortality at 0.9 ppm is 100%.

And the “Antiparasitic effect of Clavinema mariae in vitro compared with the recommended concentration” value [2]?
Its value is “at a lower concentration than the recommended concentration”.

And the “Killing Concentration (ppm)” value [2]?
Its value is 0.02-0.06 ppm.

And the “Death of fish (%)” value ([4]; oral, 2.7 ppm, 1 administration, observed for 2 weeks)?
Its value is 0%.

What about the “Killing Effect (%)” value ([3]; oral, 2.7 ppm, 1 administration, after 2 weeks) of the same molecule?
The value was 0%.

Which mortality at 50 ppm [2, 6] does the source give for `C1CNCCN1` [Piperazine] here?
The mortality at 50 ppm was 100%.

What about the mortality at 75 ppm [2, 6] of the same molecule?
The mortality at 75 ppm was 100%.

And the mortality at 100 ppm [2, 6]?
The mortality at 100 ppm was 100%.

What about the “Antiparasitic effect of Clavinema mariae in vitro compared with the recommended concentration” value [2] of the same molecule?
Its value is “at a lower concentration than the recommended concentration”.

And the “Killing Concentration (ppm)” value [2]?
Its value is 33-50 ppm.

What about the “Death of fish (%)” value ([4]; oral, 100 ppm, 1 administration, observed for 2 weeks) of the same molecule?
The value was 0%.

What about the “Death of fish (%)” value ([4]; oral, 300 ppm, 1 administration, observed for 2 weeks) of the same molecule?
The value was 30%.

What about the “Killing Effect (%)” value ([3]; oral, 100 ppm, 1 administration, after 2 weeks) of the same molecule?
The value was 0%.

And the “Killing Effect (%)” value ([3]; oral, 300 ppm, 1 administration, after 2 weeks)?
The value was 0%.
